These results are taken from publication PMC4102788, “Linking off-target kinase pharmacology to the differential cellular effects observed among PARP inhibitors” (Oncotarget, 2014).

Series [1] has as its target T1, human ALK kinase (Homo sapiens, UniProt Q9UM73).
T1 construct: purchased Cerep (CRO that ran the assay) 2678 (768-alk)
Briefly: Human ALK kinase in vitro inhibition assay (Cerep, LANCE). Format: biochemical. The following applies: human recombinant enzyme, 10 µM ATP. From the text:
(§1) Rucaparib, veliparib and olaparib were purchased from Selleckchem. Kinase in vitro assays were perfomed at Cerep (www.cerep.fr) by measuring the phosphorylation of appropriate peptide substrates by human recombinant enzymes and using FRET as a detection method (a detailed description of each kinase assay is available in online supplementary data).
Human CDC7 kinase in vitro inhibition assay
All details for the CDC7 in vitro assay can be consulted in the Cerep Catalogue available online under references 2764 (749-cdc7): […]
http://www.cerep.fr/cerep/users/pages/catalog/Affiche_CondExp_Test.asp?test=2764 Evaluation of the effects of compounds on the activity of the human CDC7/ASK quantified by measuring the phosphorylation of the substrate […]
Ulight-[…] […]
labeled with europium chelate is added. After 60 more min, the fluorescence transfer is measured at λex=337 nm, λem=620 nm and λem=665 nm using a microplate reader (Envision, Perkin Elmer). The enzyme activity is determined by dividing the signal measured at λem=665 nm by that measured at λem=620 nm (ratio). The results are expressed as a percent inhibition of the control enzyme activity. […]
ALK quantified by measuring the phosphorylation of the substrate Ulight- […]
europium chelate is added. After 60 more min, the fluorescence transfer is measured at […]
λex=337 nm, λem=620 nm and λem=665 nm using a microplate reader (Envision, […]
On the technique in general: TR-FRET usually uses a lanthanide donor and a delayed reading to cut background.

Series [2] concerns STAT3 phosphorilation. Further details: method as in PMID 22678161. The following applies: at 5 µM; cited from earlier work.
For series [3] the following is noted: 40 mg single daily dose; cited from earlier work.
For series [4], the target named is T2, human HIPK2 kinase (Homo sapiens, UniProt Q9H2X6).
T2 construct: purchased Cerep (CRO that ran the assay) 2915 (781-H2)
T2 sequence (Q9H2X6 whole entry): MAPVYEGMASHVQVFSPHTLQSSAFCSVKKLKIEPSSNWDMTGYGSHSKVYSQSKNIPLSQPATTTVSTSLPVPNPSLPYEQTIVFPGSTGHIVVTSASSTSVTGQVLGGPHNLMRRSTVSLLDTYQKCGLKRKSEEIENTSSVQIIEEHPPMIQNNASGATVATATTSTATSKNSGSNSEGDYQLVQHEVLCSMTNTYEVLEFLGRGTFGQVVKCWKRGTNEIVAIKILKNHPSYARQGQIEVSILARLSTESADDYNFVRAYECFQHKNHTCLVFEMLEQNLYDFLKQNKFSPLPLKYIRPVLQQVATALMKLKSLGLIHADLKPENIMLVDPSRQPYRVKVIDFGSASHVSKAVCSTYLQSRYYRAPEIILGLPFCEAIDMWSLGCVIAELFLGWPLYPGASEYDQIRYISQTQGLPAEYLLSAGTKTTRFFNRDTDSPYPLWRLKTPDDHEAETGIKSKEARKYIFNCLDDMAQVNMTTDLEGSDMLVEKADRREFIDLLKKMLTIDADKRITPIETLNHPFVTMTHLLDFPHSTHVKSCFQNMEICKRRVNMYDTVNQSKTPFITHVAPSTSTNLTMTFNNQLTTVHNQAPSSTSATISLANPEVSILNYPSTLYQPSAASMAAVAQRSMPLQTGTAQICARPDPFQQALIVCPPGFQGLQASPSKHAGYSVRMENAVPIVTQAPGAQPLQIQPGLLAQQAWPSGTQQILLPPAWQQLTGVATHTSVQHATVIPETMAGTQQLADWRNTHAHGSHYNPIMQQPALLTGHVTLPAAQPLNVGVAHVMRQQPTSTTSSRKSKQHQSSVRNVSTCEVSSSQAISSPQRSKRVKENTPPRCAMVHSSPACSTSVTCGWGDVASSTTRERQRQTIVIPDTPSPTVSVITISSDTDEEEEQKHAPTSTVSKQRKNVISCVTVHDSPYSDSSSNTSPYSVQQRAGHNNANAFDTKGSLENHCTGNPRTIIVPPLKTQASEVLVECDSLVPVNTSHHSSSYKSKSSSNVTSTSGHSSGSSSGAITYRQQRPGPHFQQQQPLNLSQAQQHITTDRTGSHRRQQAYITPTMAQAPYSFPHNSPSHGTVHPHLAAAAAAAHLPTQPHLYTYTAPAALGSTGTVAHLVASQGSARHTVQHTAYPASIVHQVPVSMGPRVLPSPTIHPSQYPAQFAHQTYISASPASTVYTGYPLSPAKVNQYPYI
Briefly: Human HIPK2 kinase in vitro inhibition assay (Cerep, LANCE). Format: biochemical. The following applies: human recombinant enzyme, 10 µM ATP.
Excerpt: as §1
Human HIPK2 kinase in vitro inhibition assay
All details for the HIPK2 in vitro assay can be consulted in the Cerep Catalogue available online under references 2915 (781-H2): http://www.cerep.fr/cerep/users/pages/catalog/Affiche_CondExp_Test.asp?test=2915 Evaluation of the effects of compounds on the activity of the human HIPK2 quantified by measuring the phosphorylation of the substrate Ulight- […]
-amide (MBP) using a human recombinant enzyme and the […]
mixture is incubated for 30 min at room temperature. […] After 60 more min, the fluorescence transfer is measured at λex=337 nm, λem=620 nm and λem=665 nm using a microplate reader (Envision, Perkin Elmer). The enzyme activity is determined by dividing the signal measured at λem=665 nm by that measured at λem=620 nm (ratio). The results are expressed as a percent inhibition of the control enzyme activity. […]

T1 sequence (Q9UM73 19-1620): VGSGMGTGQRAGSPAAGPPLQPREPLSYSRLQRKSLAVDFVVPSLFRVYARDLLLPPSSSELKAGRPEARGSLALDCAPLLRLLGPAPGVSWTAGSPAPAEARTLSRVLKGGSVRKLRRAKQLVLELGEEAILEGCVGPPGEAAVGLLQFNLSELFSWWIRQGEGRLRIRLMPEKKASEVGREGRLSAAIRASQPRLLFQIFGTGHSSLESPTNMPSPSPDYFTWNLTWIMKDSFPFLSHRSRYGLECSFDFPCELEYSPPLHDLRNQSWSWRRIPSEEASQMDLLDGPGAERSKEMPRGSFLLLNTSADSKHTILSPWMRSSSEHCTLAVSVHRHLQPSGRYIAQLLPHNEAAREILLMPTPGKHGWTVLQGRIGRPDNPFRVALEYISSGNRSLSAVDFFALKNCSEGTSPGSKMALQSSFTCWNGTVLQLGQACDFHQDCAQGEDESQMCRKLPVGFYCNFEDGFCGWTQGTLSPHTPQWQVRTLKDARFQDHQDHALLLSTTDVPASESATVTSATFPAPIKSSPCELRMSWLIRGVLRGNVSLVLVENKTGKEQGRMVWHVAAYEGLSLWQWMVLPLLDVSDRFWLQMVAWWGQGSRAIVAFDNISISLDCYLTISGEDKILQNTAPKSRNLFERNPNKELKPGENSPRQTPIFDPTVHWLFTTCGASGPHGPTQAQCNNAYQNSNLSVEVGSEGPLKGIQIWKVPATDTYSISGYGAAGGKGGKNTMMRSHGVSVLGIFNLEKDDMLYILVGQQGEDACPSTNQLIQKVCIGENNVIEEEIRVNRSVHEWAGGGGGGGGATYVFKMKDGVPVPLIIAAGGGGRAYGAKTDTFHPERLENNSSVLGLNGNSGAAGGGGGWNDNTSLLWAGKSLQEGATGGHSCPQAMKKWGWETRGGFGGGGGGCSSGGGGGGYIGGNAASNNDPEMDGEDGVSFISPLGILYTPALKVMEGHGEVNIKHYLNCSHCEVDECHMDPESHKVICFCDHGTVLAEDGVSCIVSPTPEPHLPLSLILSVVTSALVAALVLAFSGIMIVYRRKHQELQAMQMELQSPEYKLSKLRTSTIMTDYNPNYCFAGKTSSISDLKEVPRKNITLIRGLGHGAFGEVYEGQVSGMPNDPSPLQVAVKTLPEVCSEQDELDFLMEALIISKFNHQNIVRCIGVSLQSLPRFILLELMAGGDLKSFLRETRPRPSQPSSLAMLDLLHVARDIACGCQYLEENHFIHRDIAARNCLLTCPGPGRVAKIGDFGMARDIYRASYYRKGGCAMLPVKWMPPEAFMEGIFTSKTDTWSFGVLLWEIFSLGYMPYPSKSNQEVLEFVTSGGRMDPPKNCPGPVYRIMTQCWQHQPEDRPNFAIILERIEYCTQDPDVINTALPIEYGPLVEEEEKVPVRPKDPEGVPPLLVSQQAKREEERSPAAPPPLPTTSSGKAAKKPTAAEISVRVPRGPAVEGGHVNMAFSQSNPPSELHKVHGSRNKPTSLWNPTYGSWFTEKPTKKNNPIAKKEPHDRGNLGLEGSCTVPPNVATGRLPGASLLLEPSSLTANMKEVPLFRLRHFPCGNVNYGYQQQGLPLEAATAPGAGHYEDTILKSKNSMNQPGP

By IC50 is commonly meant the midpoint of a concentration-inhibition curve. `CNCc1ccc(-c2[nH]c3cc(F)cc4c3c2CCNC4=O)cc1` [rucaparib]: the half-inhibitory concentration (IC50) in series [1] came out at 18 µM; in series [4] it was 4.4 µM. Also, the “effect on STAT3 phosphorilation” value in series [2] was “inhibit STAT3 phosphorilation”. Further, the “highest peak plasma concentration” value in series [3] is listed as “around 2 µM”.
